Patent US11753408B2, “Compounds and method for blocking transmission of malarial parasite” (The United States of America, as represented by the …, priority 2016, dated 2023)
Read-outs that look alike come from different tables or passages of the source.

Key:
[1] = test system: Asexual parasites of P. falciparum strain 3D7; test: In vitro drug activity on asexual parasites (SYBR Green assay); format: cell-based, Plasmodium falciparum
Description: Cell culture. Asexual parasites of P. falciparum strain 3D7 were cultured as described previously [Trager W, et al., Journal of Parasitology 2005, 91: 484-486], Stage III-V gametocytes were selected and enriched with 3-day treatment with 50 mM N-acetylglucosamine (NAG) and the following Percoll density gradient centrifugation after gametocyte production [Tanaka T Q, et al., Molecular and Biochemical Parasitology, 2011, 111: 160-163], Gametocytes of HB3 and Dd2 strains were produced and then set up for assay in a similar process. HepG2 cells (ATCC, cat. no. 77400) were cultured in 175-cm^2 tissue culture flasks with 30 ml growth medium at 37° C. in a 5% CO2 humidified atmosphere. Growth medium was made with Dulbecco's Modified Eagle Medium with 10% fetal bovine serum (FBS). Growth medium was replaced every other day and cells were passed at 75% confluence.
Asexual parasites of P. falciparum strain 3D7 were cultured as described previously (Trager, W. et al., J. Parasitol. 2005, 91(3): 484-486). Drug activity on asexual stage parasites was tested using a SYBR Green assay as described previously (Eastman, R. T. et al., Antimicrob. Agents Chemother. 2013, 57(1): 425-435; Smilkstein, M. et al., Antimicrob. Agents Chemother. 2004, 48(5): 1803-1806). Briefly, parasites were diluted to 0.5% parasitemia in complete culture medium with 2% hematocrit and drugs diluted in DMSO (≤0.5%) and were loaded into a 96-well plate (200 μl/well). No drug and RBC alone wells were included as positive and background controls, respectively, and each testing condition was examined in duplicated. After 72 h incubation under the standard culture condition and a freeze-thaw lysis step at −80° C. and room temperature, 100 μl/well of lysis buffer containing SYBR Green I was added to the parasite culture and incubated for 30 min at room temperature. The fluorescence of each well was measured at 520 nm following excitation at 490 nm using a FLUOstar Optima™ microplate reader (BMG Labtech).

mTOR = mTOR (Homo sapiens, UniProt P42345); test: mTOR activity (no method described); format: biochemical
Solubility at pH 7.4 = format: physicochemical
[2] = Microsomal stability (rat); format: in vitro ADME; conditions: rat microsomes
[3] = P. falciparum 3D7 asexual parasites, 72 h, SYBR Green

Row | SMILES | EC50 [1] | mTOR (mTOR) | Sol @ pH 7.4 (Solubility at pH 7.4) | Microsomal Stability (rat) T1/2 [2] | EC50 [1, 3]
1 | CC(=O)N1CCN(c2cc(C)c(-n3c(=O)n(C)c4cnc5ccc(-c6cccc(C#N)c6)cc5c43)cc2C#N)CC1 [Compound 423] | 50.4 nM | 15.4 µM |  |  | 
2 | Cc1cc(N2CC(N)C2)c(C#N)cc1-n1c(=O)n(C)c2cnc3ccc(-c4cccc(C#N)c4)cc3c21 [Compound 426] | 29.4 nM | 6.418 µM |  |  | 
3 | O=C(NCCN1CCCC1=O)c1ccc(-n2c(=O)ccc3cnc4ccc(-c5ccc(Cl)cc5)cc4c32)cc1 [Compound 309] | 554 nM | 3.824 µM |  |  | 
4 | COc1cc(C(=O)NC2CC2)ccc1-n1c(=O)ccc2cnc3ccc(-c4ccc(Cl)c(O)c4)cc3c21 [Compound 273] | 18.9 nM | 4.164 µM | <1 ug/mL | >30 min | 
5 | COc1cc(C(=O)NCCCN(C)C)ccc1-n1c(=O)ccc2cnc3ccc(-c4ccc(Cl)cc4)cc3c21 [Compound 230] | 98.2 nM | 50 µM |  |  | 
6 | NC1(c2ccc(-c3ccc4ncc5ccc(=O)n(-c6ccc7c(c6)CNS7(=O)=O)c5c4c3)cc2)CC1 [Compound 383] |  |  |  |  | 62.3 nM
7 | CC(C)(O)CNC(=O)c1ccc(-n2c(=O)ccc3cnc4ccc(-c5ccc(Cl)cc5)cc4c32)cc1 [Compound 311] | 53.3 nM | 0.1982 µM |  |  | 
8 | Cc1ccc(C#N)cc1-n1c(=O)n(C)c2cnc3ccc(-c4cccc(S(N)(=O)=O)c4)cc3c21 [Compound 433] | 17.1 nM | 6.1 µM |  |  | 
9 | O=C1c2ccc(-n3c(=O)ccc4cnc5ccc(-c6ccc(Cl)cc6)cc5c43)cc2C(=O)N1C1CC1 [Compound 384] |  |  |  |  | 1320 nM
10 | CN(C)CCCNC(=O)c1ccc(-n2c(=O)ccc3cnc4ccc(-c5ccc(Cl)cc5)cc4c32)cc1 [Compound 258] | 34.3 nM | 2.541 µM | 0 ug/mL | 24.4 min | 
11 | O=C(NCCC1CCN(C2COC2)CC1)c1ccc(-n2c(=O)ccc3cnc4ccc(-c5ccc(Cl)cc5)cc4c32)cc1 [Compound 306] | 100 nM | 8.864 µM |  |  | 
12 | CN1CCN(CCCNC(=O)c2ccc(-n3c(=O)ccc4cnc5ccc(-c6ccc(Cl)cc6)cc5c43)cc2)CC1 [Compound 262] | 214 nM | 5.399 µM | 0 ug/mL | 4.3 min | 
13 | CCN(CC)CCCNC(=O)c1ccc(-n2c(=O)ccc3cnc4ccc(-c5ccc(Cl)cc5)cc4c32)cc1 [Compound 266] | 58.3 nM | 3.013 µM | 0 ug/mL | 2.8 min | 
14 | CCN(CC)CCCNC(=O)c1ccc(-n2c(=O)ccc3cnc4ccc(-c5ccc(Cl)cc5)cc4c32)c(OC)c1 [Compound 228] | 195 nM | 11.22 µM |  |  | 
15 | O=C(NCCCN1CCCCC1)c1ccc(-n2c(=O)ccc3cnc4ccc(-c5ccc(Cl)cc5)cc4c32)cc1 [Compound 260] | 62.4 nM | 5.024 µM | 0 ug/mL | 2.1 min | 
16 | CN1CCN(CCNC(=O)c2ccc(-n3c(=O)ccc4cnc5ccc(-c6ccc(Cl)cc6)cc5c43)cc2)CC1 [Compound 264] | 56.6 nM | 1.321 µM | 0 ug/mL | 4.5 min | 
17 | O=C(c1ccc(-n2c(=O)ccc3c(O)nc4ccc(-c5ccc(Cl)cc5)cc4c32)cc1)N1CCOCC1 [Compound 294] | 2050 nM | 4.586 µM | 0 ug/mL | 8.4 min | 
18 | Cc1ccc(C#N)cc1-n1c(=O)n(C)c2cnc3ccc(-c4ccoc4)cc3c21 [Compound 425] | 48.4 nM | 5 µM |  |  | 
19 | O=C(NC1CC1)c1ccc(-n2c(=O)ccc3cnc4ccc(-c5ccc(Cl)cc5)cc4c32)cn1 [Compound 315] | 137 nM | 100 µM |  |  | 
20 | O=C(c1ccc(-n2c(=O)ccc3cnc4ccc(-c5ccc(Cl)cc5)cc4c32)cc1)N1CCC(O)CC1 [Compound 302] | 16.4 nM | 1.595 µM | <1 ug/mL | 12 min | 
21 | CN1CCN(Cc2ccc(-c3ccc4ncc5ccc(=O)n(-c6ccc(C(=O)NC7CC7)cc6)c5c4c3)cc2)CC1 [Compound 307] | 191 nM | 39.9 µM |  |  | 
22 | Cc1cc(NCCN(C)C)c(C#N)cc1-n1c(=O)n(C)c2cnc3ccc(-c4cccc(C#N)c4)cc3c21 [Compound 430] | 58.5 nM | 4.622 µM |  |  | 
23 | Cc1cc(N2CCNCC2)c(C#N)cc1-n1c(=O)n(C)c2cnc3ccc(-c4ccc(F)c(C#N)c4)cc3c21 [Compound 427] | 75.2 nM | 30.6 µM |  |  | 

Row | SMILES | EC50 [1] | mTOR (mTOR) | Sol @ pH 7.4 (Solubility at pH 7.4) | Microsomal Stability (rat) T1/2 [2] | EC50 [1, 3]
24 | CCC(=O)N(CC)CCNC(=O)c1ccc(-n2c(=O)ccc3cnc4ccc(-c5ccc(Cl)cc5)cc4c32)cc1 [Compound 305] | 483 nM | 4.727 µM |  |  | 
25 | Cc1cc(N2CC(N)C2)c(C#N)cc1-n1c(=O)n(C)c2cnc3ccc(-c4ccc(F)cc4)cc3c21 [Compound 428] | 27.8 nM | 11 µM |  |  | 
26 | COc1cc(C(=O)NCCN(C)C)ccc1-n1c(=O)ccc2cnc3ccc(-c4ccc(F)c(O)c4)cc3c21 [Compound 316] | 412 nM | 8.154 µM |  |  | 
27 | CC(=O)N1CCN(c2cc(C)c(-n3c(=O)n(C)c4cnc5ccc(-c6ccc(F)cc6)cc5c43)cc2C#N)CC1 [Compound 422] | 5.87 nM | 1.87 µM |  |  | 
28 | COc1cc(C(=O)NCCN(C)C)ccc1-n1c(=O)ccc2cnc3ccc(-c4ccc(Cl)cc4)cc3c21 [Compound 317] | 202 nM | 8.572 µM |  |  | 
29 | Cc1ccc(C#N)cc1-n1c(=O)n(C)c2cnc3ccc(-c4cccn4C)cc3c21 [Compound 420] | 144 nM | 30.22 µM |  |  | 
30 | COc1cc(C(=O)NCCCN(CCO)CCO)ccc1-n1c(=O)ccc2cnc3ccc(-c4ccc(Cl)cc4)cc3c21 [Compound 227] | 66.5 nM | 16 µM |  |  | 
31 | Nc1nc2ccc(-c3ccc(Cl)cc3)cc2c2c1ccc(=O)n2-c1ccc(C(=O)N2CCOCC2)cc1 [Compound 314] | 429 nM | 0.78 µM |  |  | 
32 | CCC(=O)N(C)CCNC(=O)c1ccc(-n2c(=O)ccc3cnc4ccc(-c5ccc(Cl)cc5)cc4c32)cc1 [Compound 310] | 414 nM | 3.373 µM |  |  | 
33 | COc1cc(C(=O)NCCN2CCN(C)CC2)ccc1-n1c(=O)ccc2cnc3ccc(-c4ccc(Cl)cc4)cc3c21 [Compound 252] |  | 100 µM |  |  | 
34 | Cc1ccc(C#N)cc1-n1c(=O)n(C)c2cnc3ccc(-c4ccc[nH]4)cc3c21 [Compound 419] | 82.9 nM | 30.38 µM |  |  | 
35 | COc1cc(C(=O)NCCCN2CCCCC2)ccc1-n1c(=O)ccc2cnc3ccc(-c4ccc(Cl)cc4)cc3c21 [Compound 229] | 232 nM | 19.25 µM |  |  | 
36 | Cc1ccc(C#N)cc1-n1c(=O)n(C)c2cnc3ccc(-c4ccsc4)cc3c21 [Compound 424] | 23 nM | 12.51 µM |  |  | 
37 | O=C(NC1CC1)c1ccc(-n2c(=O)ccc3cnc4ccc(-c5ccc(Cl)c(F)c5)cc4c32)cc1 [Compound 308] | 23.6 nM | 2.099 µM |  |  | 
38 | Cc1cc(C(=O)NCCN2CCNCC2)ccc1-n1c(=O)ccc2cnc3ccc(-c4ccc(Cl)cc4)cc3c21 [Compound 313] | 39 nM | 1.429 µM |  |  | 
39 | N#CC1(NC(=O)c2ccc(-n3c(=O)ccc4cnc5ccc(-c6ccc(Cl)cc6)cc5c43)cc2)CC1 [Compound 304] | 19.2 nM | 0.8535 µM |  |  | 
40 | CCN(CCN(C)C)C(=O)c1ccc(-n2c(=O)ccc3cnc4ccc(-c5ccc(Cl)cc5)cc4c32)cc1 [Compound 300] | 32.7 nM | 3.792 µM |  |  | 
41 | Cc1cc(N2CCNCC2)c(C#N)cc1-n1c(=O)n(C)c2cnc3ccc(-c4cccs4)cc3c21 [Compound 421] | 18.9 nM | 18.94 µM |  |  | 
42 | N#Cc1cc(-n2c(=O)ccc3cnc4ccc(-c5ccc(Cl)cc5)cc4c32)ccc1C(=O)NC1CC1 [Compound 312] | 1850 nM | 500 µM |  |  | 
43 | CC(=O)N1CCN(c2cc(C)c(-n3c(=O)n(C)c4cnc5ccc(-c6ccc(Cl)cc6)cc5c43)cc2C#N)CC1 [Compound 429] | 10.5 nM | 12.57 µM |  |  | 
44 | CN(C)CCN(C)C(=O)c1ccc(-n2c(=O)ccc3cnc4ccc(-c5ccc(Cl)cc5)cc4c32)cc1 [Compound 299] | 55.3 nM | 5.83 µM |  |  | 
45 | COc1cc(C(=O)NCCCN2CCS(=O)(=O)CC2)ccc1-n1c(=O)ccc2cnc3ccc(-c4ccc(Cl)cc4)cc3c21 [Compound 226] | 208 nM | 8.446 µM |  |  | 
46 | Cn1c(=O)n(-c2ccc(N3CCNCC3)c(C#N)c2)c2c3cc(-c4cccc(C#N)c4)ccc3ncc21 [Compound 418] | 7.93 nM | 0.7002 µM |  |  | 
